molecular target: MAPK14 (human) (UniProt Q16539); assay: Inhibition of MAPK14 Kinase Activity; conditions: Monocyte
Sequence (Q16539 whole entry, looked up): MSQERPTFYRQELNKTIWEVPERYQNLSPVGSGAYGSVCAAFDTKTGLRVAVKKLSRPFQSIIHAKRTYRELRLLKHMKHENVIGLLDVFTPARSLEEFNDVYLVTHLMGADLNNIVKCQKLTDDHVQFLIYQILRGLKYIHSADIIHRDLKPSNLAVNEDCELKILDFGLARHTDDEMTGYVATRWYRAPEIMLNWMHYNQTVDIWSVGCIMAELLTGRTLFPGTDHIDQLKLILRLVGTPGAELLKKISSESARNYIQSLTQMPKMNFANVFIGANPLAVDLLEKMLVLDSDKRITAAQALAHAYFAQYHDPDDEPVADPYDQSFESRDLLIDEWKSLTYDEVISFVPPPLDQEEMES

SMILES | IC50 [nM]
CNCC(=O)NCc1ccc(Cn2c(C)cc(OCc3ccc(F)cc3F)c(Br)c2=O)cc1 | < 1000
Cc1cc(OCc2ccc(F)cc2F)c(Br)c(=O)n1-c1ccc(C(=O)N(C)C)cc1C(F)(F)F | 1000 to 25000
Cc1cc(OCc2ccc(F)cc2F)c(Br)c(=O)n1-c1c(F)cc(C(O)COC(N)=O)cc1F (stereo not given) | < 1000
Cc1ccc(C(N)=O)cc1-n1c(C)cc(OCc2ccc(F)cc2CNC(=O)NC2CC2)c(Cl)c1=O | < 1000
Cc1cc(OCc2ccc(F)cc2F)c(Br)c(=O)n1Cc1cc[nH]n1 | < 1000
CNC(=O)c1ccc(C(C)n2c(C)cc(OCc3ccc(F)cc3F)c(Br)c2=O)cc1 (stereo not given) | 1000 to 25000
Cc1ccc(C(N)=O)cc1-n1c(C)cc(OCc2ccc(F)cc2F)c(Br)c1=O | < 1000
Cc1cc(OCc2ccc(F)cc2F)c(Br)c(=O)n1-c1ccc(CNC(=O)C(C)(C)O)cc1 | < 1000
Cc1cc(OCc2ccc(F)cc2C(N)=O)c(Br)c(=O)n1-c1c(F)cccc1F | 25000 to 100000

The remaining lines, values ahead:

IC50 [nM] | SMILES
1000 to 25000 | Cc1cc(OCc2ccc(F)cc2F)c(Br)c(=O)n1Cc1ccc(C(=O)NCCO)o1
< 1000 | Cc1cc(OCc2ccc(F)cc2F)c(Br)c(=O)n1Cc1cnc(N(C)C)nc1
< 1000 | Cc1cc(OCc2ccc(F)cc2F)c(Br)c(=O)n1-c1c(F)cc(/C=C/CO)cc1F
< 1000 | Cc1cc(OCc2ccc(F)cc2F)c(Cl)c(=O)n1Cc1ccc2c(c1)CN(C(=O)C(C)(C)O)C2
< 1000 | Cc1cc(OCc2ccc(F)cc2F)c(Br)c(=O)n1Cc1ccc(C(=O)N2CCOCC2)o1
< 1000 | Cc1cc(OCc2ccc(F)cc2F)c(Br)c(=O)n1Cc1cnc(CNC(=O)CN)nc1

— the Kinase Knowledgebase extract (Sharma et al. 2016)
